Source: the supplement of paper PMC10733146

What was measured:
Assay in all cases: viability relative to DMSO control (fraction); higher = less drug effect (more viable cells)
Conditions in all cases: 48 h
[1] = compound: O=C(Nc1nc2cccc(-c3ccc(CN4CCS(=O)(=O)CC4)cc3)n2n1)C1CC1 [Filgotinib]
Method in brief: (§1)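 Viability is given as CellTiter-Glo luminescence relative to the median of 16 inner DMSO wells. Fresh or cryopreserved primary mononuclear tumour cells from blood, bone marrow (both Ficoll-isolated) or processed lymph node were plated at 4 × 10^4 cells per well in 384-well plates against five pre-plated compound concentrations, one well each. Incubation lasted 48 h at 37 °C and 5% CO2 in RPMI-1640 with penicillin/streptomycin, L-glutamine and human serum.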

[2] = compound: CCNC(=O)C[C@@H]1N=C(c2ccc(Cl)cc2)c2cc(OC)ccc2-n2c(C)nnc21 [I-BET-762]
Method in brief: as §1

[3] = compound: C[C@H]1C[C@@H](n2c(Nc3ccc(OC(F)(F)F)cc3)nc3cc(CCC(=O)O)ccc32)CC(C)(C)C1
Method in brief: as §1

[4] = compound: CC[C@]1(O)C[C@@H]2CN(CCc3c([nH]c4ccccc34)[C@@](C(=O)OC)(c3cc4c(cc3OC)N(C)[C@H]3[C@@](O)(C(N)=O)[C@H](O)[C@]5(CC)C=CCN6CC[C@]43[C@@H]65)C2)C1 [Vindesine]
Method in brief: as §1

[5] = compound: Nc1cccc2c1C(=O)N(C1CCC(=O)NC1=O)C2=O [Pomalidomide]
Method in brief: as §1

[6] = compound: COc1cc(C(=O)O)ccc1NC(=O)[C@@H]1N[C@@H](CC(C)(C)C)[C@](C#N)(c2ccc(Cl)cc2F)[C@H]1c1cccc(Cl)c1F [Idasanutlin (RS7388)]
Method in brief: as §1

[7] = compound: C[C@H](NC(=O)CCC(F)(F)F)C(=O)N[C@@H]1C(=O)N(CCO)c2ncccc2-c2ccccc21
Method in brief: as §1

[8] = compound: CO[C@@H]1[C@H](N(C)C(=O)c2ccccc2)C[C@H]2O[C@]1(C)n1c3ccccc3c3c4c(c5c6ccccc6n2c5c31)C(=O)NC4 [Midostaurin hydrate]
Method in brief: as §1

[9] = compound: O=C(O)CCCc1ccc(N(CCCl)CCCl)cc1 [Chlorambucil]
Method in brief: as §1

[10] = compound: CCN(CCCOc1ccc2c(Nc3cc(CC(=O)Nc4cccc(F)c4)[nH]n3)ncnc2c1)CCOP(=O)(O)O [Barasertib]
Method in brief: as §1

[11] = compound: Cn1c(CCCC(=O)O)nc2cc(N(CCCl)CCCl)ccc21 [Bendamustine]
Method in brief: as §1

[12] = compound: O=C(NO)c1cccc(C(=O)NCCc2ccccc2)c1
Method in brief: as §1

[13] = compound: c1cn2cc(-c3ccc4cn[nH]c4c3)nc(Nc3ccc(N4CCOCC4)cc3)c2n1 [Entospletinib]
Method in brief: as §1

[14] = compound: CO[C@H]1C[C@@H]2CC[C@@H](C)[C@@](O)(O2)C(=O)C(=O)N2CCCC[C@H]2C(=O)O[C@H]([C@H](C)C[C@@H]2CC[C@@H](OCCO)[C@H](OC)C2)CC(=O)[C@H](C)/C=C(\C)[C@@H](O)[C@@H](OC)C(=O)[C@H](C)C[C@H](C)/C=C/C=C/C=C/1C [Everolimus]
Method in brief: as §1

primary ALL patient cells (S048)
viability ([1]; 0.024 µM): 0.893 | viability ([1]; 0.12 µM): 0.912 | viability ([1]; 0.6 µM): 0.903 | viability ([1]; 3 µM): 0.917 | viability ([1]; 15 µM): 0.541 | viability ([2]; 0.008 µM): 0.97 | viability ([2]; 0.04 µM): 1.11 | viability ([2]; 0.2 µM): 1.1 | viability ([2]; 1 µM): 0.639 | viability ([2]; 5 µM): 0.327 | viability ([3]; 0.024 µM): 0.771 | viability ([3]; 0.12 µM): 0.831 | viability ([3]; 0.6 µM): 0.596 | viability ([3]; 3 µM): 0.641 | viability ([3]; 15 µM): 0.642 | viability ([4]; 0.016 µM): 0.395 | viability ([4]; 0.08 µM): 0.179 | viability ([4]; 0.4 µM): 0.111 | viability ([4]; 2 µM): 0.0967 | viability ([4]; 10 µM): 0.0648 | viability ([5]; 0.0032 µM): 0.773 | viability ([5]; 0.016 µM): 0.695 | viability ([5]; 0.08 µM): 0.517 | viability ([5]; 0.4 µM): 0.394 | viability ([5]; 2 µM): 0.377 | viability ([6]; 0.032 µM): 0.695 | viability ([6]; 0.16 µM): 0.556 | viability ([6]; 0.8 µM): 0.235 | viability ([6]; 4 µM): 0.0549 | viability ([6]; 20 µM): 0.0421 | viability ([7]; 0.016 µM): 1.03 | viability ([7]; 0.08 µM): 1.08 | viability ([7]; 0.4 µM): 1.03 | viability ([7]; 2 µM): 1.06 | viability ([7]; 10 µM): 0.965 | viability ([8]; 0.024 µM): 0.98 | viability ([8]; 0.12 µM): 0.918 | viability ([8]; 0.6 µM): 0.889 | viability ([8]; 3 µM): 0.556 | viability ([8]; 15 µM): 0.182 | viability ([9]; 0.032 µM): 1.04 | viability ([9]; 0.16 µM): 0.959 | viability ([9]; 0.8 µM): 0.967 | viability ([9]; 4 µM): 0.494 | viability ([9]; 20 µM): 0.0459 | viability ([10]; 0.0008 µM): 0.776 | viability ([10]; 0.004 µM): 0.774 | viability ([10]; 0.02 µM): 0.744 | viability ([10]; 0.1 µM): 0.775 | viability ([10]; 0.5 µM): 0.753 | viability ([11]; 0.032 µM): 0.981 | viability ([11]; 0.16 µM): 1.03 | viability ([11]; 0.8 µM): 0.982 | viability ([11]; 4 µM): 0.747 | viability ([11]; 20 µM): 0.15 | viability ([12]; 0.024 µM): 0.897 | viability ([12]; 0.12 µM): 0.878 | viability ([12]; 0.6 µM): 0.886 | viability ([12]; 3 µM): 0.828 | viability ([12]; 15 µM): 0.65 | viability ([13]; 0.024 µM): 0.996 | viability ([13]; 0.12 µM): 1.03 | viability ([13]; 0.6 µM): 1.02 | viability ([13]; 3 µM): 0.984 | viability ([13]; 15 µM): 0.944 | viability ([14]; 0.0032 µM): 0.862 | viability ([14]; 0.016 µM): 0.757 | viability ([14]; 0.08 µM): 0.769 | viability ([14]; 0.4 µM): 0.716 | viability ([14]; 2 µM): 0.777

primary ALL patient cells (S088)
viability ([1]; 0.024 µM): 0.831 | viability ([1]; 0.12 µM): 0.961 | viability ([1]; 0.6 µM): 0.825 | viability ([1]; 3 µM): 0.893 | viability ([1]; 15 µM): 0.751 | viability ([2]; 0.008 µM): 0.856 | viability ([2]; 0.04 µM): 0.906 | viability ([2]; 0.2 µM): 0.857 | viability ([2]; 1 µM): 0.522 | viability ([2]; 5 µM): 0.444 | viability ([3]; 0.024 µM): 0.471 | viability ([3]; 0.12 µM): 0.597 | viability ([3]; 0.6 µM): 0.43 | viability ([3]; 3 µM): 0.548 | viability ([3]; 15 µM): 0.573 | viability ([4]; 0.016 µM): 0.633 | viability ([4]; 0.08 µM): 0.464 | viability ([4]; 0.4 µM): 0.37 | viability ([4]; 2 µM): 0.317 | viability ([4]; 10 µM): 0.255 | viability ([5]; 0.0032 µM): 0.934 | viability ([5]; 0.016 µM): 1.08 | viability ([5]; 0.08 µM): 1.15 | viability ([5]; 0.4 µM): 1.05 | viability ([5]; 2 µM): 1.1 | viability ([6]; 0.032 µM): 0.557 | viability ([6]; 0.16 µM): 0.423 | viability ([6]; 0.8 µM): 0.286 | viability ([6]; 4 µM): 0.155 | viability ([6]; 20 µM): 0.132 | viability ([7]; 0.016 µM): 1.08 | viability ([7]; 0.08 µM): 1.11 | viability ([7]; 0.4 µM): 1.08 | viability ([7]; 2 µM): 1.09 | viability ([7]; 10 µM): 1.05 | viability ([8]; 0.024 µM): 0.899 | viability ([8]; 0.12 µM): 0.858 | viability ([8]; 0.6 µM): 0.717 | viability ([8]; 3 µM): 0.489 | viability ([8]; 15 µM): 0.265 | viability ([9]; 0.032 µM): 1.02 | viability ([9]; 0.16 µM): 1 | viability ([9]; 0.8 µM): 0.981 | viability ([9]; 4 µM): 0.71 | viability ([9]; 20 µM): 0.267 | viability ([10]; 0.0008 µM): 0.716 | viability ([10]; 0.004 µM): 0.61 | viability ([10]; 0.02 µM): 0.415 | viability ([10]; 0.1 µM): 0.614 | viability ([10]; 0.5 µM): 0.588 | viability ([11]; 0.032 µM): 1 | viability ([11]; 0.16 µM): 1.07 | viability ([11]; 0.8 µM): 1 | viability ([11]; 4 µM): 0.929 | viability ([11]; 20 µM): 0.679 | viability ([12]; 0.024 µM): 0.838 | viability ([12]; 0.12 µM): 0.868 | viability ([12]; 0.6 µM): 0.907 | viability ([12]; 3 µM): 0.931 | viability ([12]; 15 µM): 0.733 | viability ([13]; 0.024 µM): 1.01 | viability ([13]; 0.12 µM): 1.06 | viability ([13]; 0.6 µM): 0.954 | viability ([13]; 3 µM): 0.986 | viability ([13]; 15 µM): 1.02 | viability ([14]; 0.0032 µM): 0.871 | viability ([14]; 0.016 µM): 0.782 | viability ([14]; 0.08 µM): 0.76 | viability ([14]; 0.4 µM): 0.739 | viability ([14]; 2 µM): 0.74

primary AML patient cells (S006)
viability ([1]; 0.024 µM): 0.955 | viability ([1]; 0.12 µM): 0.98 | viability ([1]; 0.6 µM): 0.738 | viability ([1]; 3 µM): 0.451 | viability ([1]; 15 µM): 0.844 | viability ([3]; 0.024 µM): 1.02 | viability ([3]; 0.12 µM): 1.14 | viability ([3]; 0.6 µM): 1.08 | viability ([3]; 3 µM): 1.04 | viability ([3]; 15 µM): 0.957 | viability ([4]; 0.016 µM): 0.778 | viability ([4]; 0.08 µM): 0.395 | viability ([4]; 0.4 µM): 0.244 | viability ([4]; 2 µM): 0.207 | viability ([4]; 10 µM): 0.194 | viability ([5]; 0.0032 µM): 0.812 | viability ([5]; 0.016 µM): 0.817 | viability ([5]; 0.08 µM): 0.786 | viability ([5]; 0.4 µM): 0.622 | viability ([5]; 2 µM): 0.656 | viability ([6]; 0.032 µM): 0.488 | viability ([6]; 0.16 µM): 0.25 | viability ([6]; 0.8 µM): 0.0758 | viability ([6]; 4 µM): 0.0429 | viability ([6]; 20 µM): 0.0408 | viability ([7]; 0.016 µM): 1.13 | viability ([7]; 0.08 µM): 1.16 | viability ([7]; 0.4 µM): 1.11 | viability ([7]; 2 µM): 1.19 | viability ([7]; 10 µM): 1.08 | viability ([8]; 0.024 µM): 0.669 | viability ([8]; 0.12 µM): 0.585 | viability ([8]; 0.6 µM): 0.529 | viability ([8]; 3 µM): 0.638 | viability ([8]; 15 µM): 0.709 | viability ([9]; 0.032 µM): 1.03 | viability ([9]; 0.16 µM): 0.922 | viability ([9]; 0.8 µM): 0.945 | viability ([9]; 4 µM): 0.522 | viability ([9]; 20 µM): 0.154 | viability ([10]; 0.0008 µM): 0.925 | viability ([10]; 0.004 µM): 0.872 | viability ([10]; 0.02 µM): 0.865 | viability ([10]; 0.1 µM): 0.621 | viability ([10]; 0.5 µM): 0.442 | viability ([11]; 0.032 µM): 0.999 | viability ([11]; 0.16 µM): 1.04 | viability ([11]; 0.8 µM): 1.04 | viability ([11]; 4 µM): 0.987 | viability ([11]; 20 µM): 0.616 | viability ([12]; 0.024 µM): 1.03 | viability ([12]; 0.12 µM): 0.999 | viability ([12]; 0.6 µM): 1.04 | viability ([12]; 3 µM): 0.933 | viability ([12]; 15 µM): 0.837 | viability ([13]; 0.024 µM): 1.08 | viability ([13]; 0.12 µM): 0.973 | viability ([13]; 0.6 µM): 0.886 | viability ([13]; 3 µM): 0.945 | viability ([13]; 15 µM): 0.925 | viability ([14]; 0.0032 µM): 0.865 | viability ([14]; 0.016 µM): 0.853 | viability ([14]; 0.08 µM): 0.82 | viability ([14]; 0.4 µM): 0.758 | viability ([14]; 2 µM): 0.684
